The nature of the assay: Hemodialysis treatments with trisodium citrate infusion into the arterial line and Citrasate dialysate; measured ionized calcium. As to conditions: 15 min into the treatment, mean±SD. In kind it is in vivo, maintenance HD patients. The method, then:
For one treatment only, Citrasate with 2.5 mEq/L Ca was used. No post-dialyzer Ca infusion was performed. Total Ca, Ca^++ and total Ci were measured systemically, pre- and post-dialyzer at the following time points: before HD (systemically only), at several time points throughout the treatment, and at the end of HD. […] Total protein and albumin were measured before dialysis. The most recent alkaline phosphatase (AP) and total parathyroid hormone (PTH) (Scantibodies assay, Scantibodies Laboratory, Inc., Santee, Calif.) were recorded. […] All subjects used Optiflux F180NR dialyzers (Fresenius Medical Care North America, Waltham, Mass.).
Measured and predicted systemic Ca^++ were compared pre-HD and at 15 min into the treatment. For the latter, pre-HD predicted were adjusted to measured values. Pre- and post-dialyzer comparisons between measured and estimated Ca^++ were performed at 15 min into the treatment. Deviations between predicted and measured systemic Ca^++ over the entire treatment were compared for tertiles of AP and tPTH.
Results are presented below as mean±standard deviation (SD) unless otherwise noted. Differences between predicted and measured values were calculated as predicted minus measured and were tested for significant deviation from zero by means of two-tailed one-sample t test. Bland-Altman plots were generated and the underlying data analyzed for systematic bias by means of linear regression. Statistical significance was accepted for an alpha level of <0.05.

[1] abbreviates: Citrasate dialysate, no post-dialyzer Ca infusion.

Regarding `O=C([O-])CC(O)(CC(=O)[O-])C(=O)[O-].[Na+].[Na+].[Na+]` [Trisodium citrate], under setting [1], the “Measured post-dialyzer Ca” value was 0.7 ± 0.05 mmol/L and the “Measured systemic Ca++” value came to 1.01 ± 0.05 mmol/L. Moreover, the “Measured pre-dialyzer Ca” value (after citrate infusion) came to 0.33 ± 0.06 mmol/L.
